The record followed here is patent publication US20240374626A1, “METHODS OF ENHANCING MILK PRODUCTION IN LACTATING MAMMALIAN SUBJECTS” (priority 2023, published 2024).

This test relates to Wee1. The experiment in a line: Contralateral intraductal injection: Wee1 expression in whole MG tissue by RT-qPCR. The format is in vivo, mouse. Particulars: IDI of doxorubicin into pregnant MG vs contralateral DMSO. The procedure:
Nulliparous analysis was performed using adult (10-12-week-old) female mice. For timed pregnancies and lactation analysis, CD-1 pregnant adult females were obtained from Charles Rivers. Embryos were examined at the time of mammary gland harvesting to confirm pregnancy state. […] Plugged mice were considered to be PD0.5 on the day of the observed plug. All females used in this study were age matched.
Mice were anesthetized with isoflurane (VetOne, 501017) Prior to intraductal injections, hair was removed from around the nipples using Nair hair remover. Injections into the duct of the nipple were performed with 33 G needles (Hamilton, 7803-05) and a volume of 40 μl per gland. […]
For RNA isolation from FACS purified populations, mammary gland cell suspensions were blocked using Mouse BD Fc Block™ (BD Biosciences) for 10 min. […] Total RNA quality was analyzed by agarose gel electrophoresis and quantified using an ND-1000 spectrophotometer (NanoDrop). cDNA was prepared from 500-1000 ng of total RNA using iScript cDNA synthesis kit (Bio-Rad, 1708841). Quantitative RT-qPCR was performed in triplicates using SsoAdvanced Universal SYBR Green Supermix, (Bio-Rad, 1725272). […]

As for `COc1cccc2c1C(=O)c1c(O)c3c(c(O)c1C2=O)C[C@@](O)(C(=O)CO)C[C@@H]3O[C@H]1C[C@H](N)[C@H](O)[C@H](C)O1` [doxorubicin], the “Wee1 expression in whole MG tissue, RT-qPCR” value is “upregulated”.
